The subject of this data set is CCRIS mutagenicity, Ames/micronucleus/aberration tests. Briefly: CCRIS mutagenicity studies.
[1] abbreviates: Test System: AMES SALMONELLA TYPHIMURIUM, Strain/Indicator: TA98, Metabolic Activation: NONE, Method: STANDARD PLATE.
The mark [2] stands for this setting: Test System: AMES SALMONELLA TYPHIMURIUM, Strain/Indicator: TA98, Metabolic Activation: RAT, LIVER, S-9, AROCLOR 1254, Method: STANDARD PLATE.
[3] abbreviates: Test System: AMES SALMONELLA TYPHIMURIUM, Strain/Indicator: TA100, Metabolic Activation: NONE, Method: STANDARD PLATE.
Setting [4] is: Test System: AMES SALMONELLA TYPHIMURIUM, Strain/Indicator: TA100, Metabolic Activation: RAT, LIVER, S-9, AROCLOR 1254, Method: STANDARD PLATE.
[5] abbreviates: Test System: AMES SALMONELLA TYPHIMURIUM, Strain/Indicator: TA1535, Metabolic Activation: NONE, Method: STANDARD PLATE.
Setting [6] is: Test System: AMES SALMONELLA TYPHIMURIUM, Strain/Indicator: TA1535, Metabolic Activation: RAT, LIVER, S-9, AROCLOR 1254, Method: STANDARD PLATE.
Where [7] appears, read: Test System: AMES SALMONELLA TYPHIMURIUM, Strain/Indicator: TA1537, Metabolic Activation: NONE, Method: STANDARD PLATE.
Setting [8] is: Test System: AMES SALMONELLA TYPHIMURIUM, Strain/Indicator: TA1537, Metabolic Activation: RAT, LIVER, S-9, AROCLOR 1254, Method: STANDARD PLATE.
Setting [9] is: Test System: AMES SALMONELLA TYPHIMURIUM, Strain/Indicator: TA1538, Metabolic Activation: NONE, Method: STANDARD PLATE.
The mark [10] stands for this setting: Test System: AMES SALMONELLA TYPHIMURIUM, Strain/Indicator: TA1538, Metabolic Activation: RAT, LIVER, S-9, AROCLOR 1254, Method: STANDARD PLATE.
The mark [11] stands for this setting: Test System: AMES SALMONELLA TYPHIMURIUM, Strain/Indicator: TA98, Metabolic Activation: NONE, Method: PREINCUBATION
Setting [12] is: Test System: AMES SALMONELLA TYPHIMURIUM, Strain/Indicator: TA100, Metabolic Activation: NONE, Method: PREINCUBATION
[13] abbreviates: Test System: AMES SALMONELLA TYPHIMURIUM, Strain/Indicator: TA1535, Metabolic Activation: NONE, Method: PREINCUBATION

This is an account of results in PubChem BioAssay AID1259407 (Chemical Carcinogenesis Research Information System (CCRIS), 2018).

Calls of active or inactive are those of the source. The rule behind the calls is not given here.

As for `C/C=C/c1cc(OC)c(OC)cc1OC`, the mutagenic call is “inactive; negative” (Test System: AMES SALMONELLA TYPHIMURIUM, Strain/Indicator: TA97, Metabolic Activation: NONE, Method: STANDARD PLATE); “inactive; negative” (Test System: AMES SALMONELLA TYPHIMURIUM, Strain/Indicator: TA97, Metabolic Activation: RAT, LIVER, S-9, AROCLOR 1254, Method: STANDARD PLATE); “inactive; negative” under setting [1]; “inactive; negative” under setting [2]; “inactive; negative” (Test System: AMES SALMONELLA TYPHIMURIUM, Strain/Indicator: TA100, Metabolic Activation: NONE); “inactive; negative” under setting [3]. Further, the mutagenic call by setting is: under setting [4], “inactive; negative”; (Test System: AMES SALMONELLA TYPHIMURIUM, Strain/Indicator: TA100, Metabolic Activation: S-9) “active; positive”; under setting [5], “active; positive”; under setting [6], “inactive; negative”; under setting [7], “inactive; negative”; under setting [8], “inactive; negative”. For the same molecule, the mutagenic call was “inactive; negative” under setting [9]; “inactive; negative” under setting [10]; “active; positive” (Test System: UDS RAT HEPATOCYTES, Strain/Indicator: THY INCORP, Metabolic Activation: NONE, Method: LIQUID SCINTILLATION COUNTING).

On to `c1ccc(P(c2ccccc2)c2ccccc2)cc1`, for which the mutagenic call (Test System: AMES SALMONELLA TYPHIMURIUM, Strain/Indicator: TA98, Metabolic Activation: HAMSTER, LIVER, S-9, AROCLOR 1254 (10%), Method: PREINCUBATION) is “inactive; negative”; the mutagenic call under setting [11] was “inactive; negative”; the mutagenic call (Test System: AMES SALMONELLA TYPHIMURIUM, Strain/Indicator: TA98, Metabolic Activation: RAT, LIVER, S-9, AROCLOR 1254 (10%), Method: PREINCUBATION) is “inactive; negative”; the mutagenic call (Test System: AMES SALMONELLA TYPHIMURIUM, Strain/Indicator: TA100, Metabolic Activation: HAMSTER, LIVER, S-9, AROCLOR 1254 (10%), Method: PREINCUBATION) was “inactive; negative”; the mutagenic call under setting [12] is “inactive; negative”; the mutagenic call (Test System: AMES SALMONELLA TYPHIMURIUM, Strain/Indicator: TA100, Metabolic Activation: RAT, LIVER, S-9, AROCLOR 1254 (10%), Method: PREINCUBATION) was “inactive; negative”. For the same molecule, the mutagenic call was “inactive; negative” (Test System: AMES SALMONELLA TYPHIMURIUM, Strain/Indicator: TA1535, Metabolic Activation: HAMSTER, LIVER, S-9, AROCLOR 1254 (10%), Method: PREINCUBATION); “inactive; negative” under setting [13]; “inactive; negative” (Test System: AMES SALMONELLA TYPHIMURIUM, Strain/Indicator: TA1535, Metabolic Activation: RAT, LIVER, S-9, AROCLOR 1254 (10%), Method: PREINCUBATION); “inactive; negative” (Test System: AMES SALMONELLA TYPHIMURIUM, Strain/Indicator: TA1537, Metabolic Activation: HAMSTER, LIVER, S-9, AROCLOR 1254 (10%), Method: PREINCUBATION); “inactive; negative” (Test System: AMES SALMONELLA TYPHIMURIUM, Strain/Indicator: TA1537, Metabolic Activation: NONE, Method: PREINCUBATION); “inactive; negative” (Test System: AMES SALMONELLA TYPHIMURIUM, Strain/Indicator: TA1537, Metabolic Activation: RAT, LIVER, S-9, AROCLOR 1254 (10%), Method: PREINCUBATION).

As for `CCCCCCCCCCSCn1cc[n+](C)c1`, the mutagenic call runs as follows: under setting [1], “inactive; negative”; under setting [2], “inactive; negative”; under setting [3], “inactive; negative”; under setting [4], “active; positive”; under setting [5], “inactive; negative”; under setting [6], “active; positive”. In addition, the mutagenic call runs as follows: under setting [7], “inactive; negative”; under setting [8], “inactive; negative”; under setting [9], “inactive; negative”; under setting [10], “inactive; negative”.

Consider `Nc1ccc(S(=O)(=O)O)cc1`, for which the mutagenic call runs as follows: (Test System: AMES SALMONELLA TYPHIMURIUM, Strain/Indicator: TA97, Metabolic Activation: HAMSTER, LIVER, S-9, AROCLOR 1254 (10 OR 30%), Method: PREINCUBATION) “inactive; negative”; (Test System: AMES SALMONELLA TYPHIMURIUM, Strain/Indicator: TA97, Metabolic Activation: NONE, Method: PREINCUBATION) “inactive; negative”; (Test System: AMES SALMONELLA TYPHIMURIUM, Strain/Indicator: TA97, Metabolic Activation: RAT, LIVER, S-9, AROCLOR 1254 (10 OR 30%), Method: PREINCUBATION) “inactive; negative”; (Test System: AMES SALMONELLA TYPHIMURIUM, Strain/Indicator: TA98, Metabolic Activation: HAMSTER, LIVER, S-9, AROCLOR 1254 (10 OR 30%), Method: PREINCUBATION) “inactive; negative”; under setting [11], “inactive; negative”; (Test System: AMES SALMONELLA TYPHIMURIUM, Strain/Indicator: TA98, Metabolic Activation: RAT, LIVER, S-9, AROCLOR 1254 (10 OR 30%), Method: PREINCUBATION) “inactive; negative”. The mutagenic call is, setting by setting: (Test System: AMES SALMONELLA TYPHIMURIUM, Strain/Indicator: TA98, Metabolic Activation: RAT, LIVER, S-9, PHENOBARBITAL, Method: PREINCUBATION) “inactive; negative”; (Test System: AMES SALMONELLA TYPHIMURIUM, Strain/Indicator: TA100, Metabolic Activation: HAMSTER, LIVER, S-9, AROCLOR 1254 (10 OR 30%), Method: PREINCUBATION) “inactive; negative”; under setting [12], “inactive; negative”; (Test System: AMES SALMONELLA TYPHIMURIUM, Strain/Indicator: TA100, Metabolic Activation: RAT, LIVER, S-9, AROCLOR 1254 (10 OR 30%), Method: PREINCUBATION) “inactive; negative”; (Test System: AMES SALMONELLA TYPHIMURIUM, Strain/Indicator: TA100, Metabolic Activation: RAT, LIVER, S-9, PHENOBARBITAL, Method: PREINCUBATION) “inactive; negative”; (Test System: AMES SALMONELLA TYPHIMURIUM, Strain/Indicator: TA1535, Metabolic Activation: HAMSTER, LIVER, S-9, AROCLOR 1254 (10 OR 30%), Method: PREINCUBATION) “inactive; negative”. In addition, the mutagenic call by setting is: under setting [13], “inactive; negative”; (Test System: AMES SALMONELLA TYPHIMURIUM, Strain/Indicator: TA1535, Metabolic Activation: RAT, LIVER, S-9, AROCLOR 1254 (10 OR 30%), Method: PREINCUBATION) “inactive; negative”; (Test System: Ames Salmonella typhimurium, Strain/Indicator: TA102, Metabolic Activation: None, Method: Preincubation) “inactive; negative”; (Test System: Ames Salmonella typhimurium, Strain/Indicator: TA102, Metabolic Activation: Rat, Liver, S9, Aroclor 1254, Method: Preincubation) “inactive; negative”; (Test System: Ames Salmonella typhimurium, Strain/Indicator: TA104, Metabolic Activation: None, Method: Preincubation) “inactive; negative”; (Test System: Ames Salmonella typhimurium, Strain/Indicator: TA104, Metabolic Activation: Rat, Liver, S9, Aroclor 1254, Method: Preincubation) “inactive; negative”.

`O=C/C=C\C=O`: the mutagenic call is “active; positive” (End Point: In vitro micronucleus, Test System: Mouse lymphoma L5178Y cells, Metabolic Activation: None); “active; positive” (Test System: AMES SALMONELLA TYPHIMURIUM, Strain/Indicator: TA104, Metabolic Activation: NONE, Method: PREINCUBATION); “active; positive” (Test System: Mouse lymphoma, Strain/Indicator: L5178Y (tk+/tk-), Metabolic Activation: None, Method: Preincubation).
